In US8314140B2, “4-hydroxythiobenzamide derivatives of drugs” (Antibe Therapeutics Inc., priority 2006, dated 2012):

Assays:
visceral pain perception = assay: Rat model of visceral pain perception (colorectal distension, AWR score); assay type: in vivo; details: 0.8 mL colorectal distention; for pain perception score: 100 mg/kg i.p., FIG. 3, FIG. 4
Procedure: A rat model of visceral pain perception, a pre-clinical model of irritable bowel syndrome, was used in the following example. Rats (male, Wistar, 200-250 g, obtained from Charles River, Monza, Italy), were housed in plastic cages and maintained under controlled conditions with 12-hours light/dark cycle with lights on at 7.00 AM. Tap water and standard laboratory chow were freely available. Before experiments, rats were individually trained by spending 2-3 hours per day in a plexiglass cage for 2-3 days. It allowed them to adjust to a movement-restriction environment. Food was withheld for 12 hours before colorectal distension (CRD) recording were performed. Experiments were performed in awake rats and were conducted in a blind manner in that the observer was not aware of the identity of drug administered to each animal.
In the testing day, rats were sedated with ether inhalation and a 2 cm long latex balloon was inserted intrarectally 2 cm from the anal verge and fixed at the base of the tail. The balloon was connected via a double-barreled cannula to a pressure transducer to continuously monitoring the rectal pressure by a computer (PowerLab PC, A.D. Instruments, Milford, Mass., USA) and to a syringe for inflation/deflation of the balloon. The rats were then housed in a small cage (20×8×8 cm) on an elevated Plexiglas™ platform and allowed to wake up and adapt for 1 hour. After recovery from sedation, animals underwent the CRD procedure and behavioral responses were tested. The night before the experiments, the balloons were inflated and left overnight so the latex stretched and the balloons became compliant.
CRD of 20 seconds, performed every 5 minutes, was applied in increment of 0.4 ml starting from 0.4 ml up to 1.6 ml water. To achieve an accurate measurement of the colonic parameters and perception, the distensions were repeated twice for each intensity and data for each animal were averaged for analysis. Each animal underwent a double set of CRD. Twenty minutes after the first sequence of CRD (0.4 mL-1.6 ml water), drugs were administered intraperitoneally (i.p.) and a second set of CRD was performed. Behavioral responses during the first and the second set of CRD were assessed and compared.
Behavioral response to CRD was assessed by measuring the abdominal withdrawal reflex (AWR) using a semiquantitative score (1).
A rat model of visceral pain perception as described above was used to compare pain perception scores for 5-amino-2-(4-thiocarbamoyl-phenoxycarbonyloxy)-benzoic acid (Compound XXVII) with or without glibenclamide, an inhibitor of ATP-sensitive K^+ (KATP) channels.
Experiments were carried out as described in Example 13, except that groups of 5 rats each were treated with vehicle, trimebutine maleate (10 mg/kg), or with equimolar doses of trimebutine thiocarbamoylbenzoate (Compound III) or thiocarbamolybenzoate alone.

[1] = H2S generation in buffer and liver homogenate (Example 15); assay type: in vitro ADME, rat; details: for H2S generation in buffer: buffer pH 7.4, 37° C.
Procedure: (Compound XXVII) was tested for H2S generation under three different conditions. Concentrations of H2S that were generated within 1 hour from 1 mM concentrations of L-cysteine, 4-HBT (4-hydroxythiobenzamide) and 5-amino-2-(4-thiocarbamoyl-phenoxycarbonyloxy)-benzoic acid were measured. H2S release was tested under three conditions: (i) when the compound was in buffer, (ii) when the compound was in a liver homogenate, and (iii) when the compound was in the liver homogenate together with an inhibitor of cystathionine γ-lyase (PAG=DL-propargylglycine; 2 mM). Results are shown in FIG. 6. *p<0.05 compared to the release from the vehicle group. ^ψp>0.05 versus the corresponding ‘homogenate’ group. The enzymatic capacity for H2S production was determined using the same reactor as described previously (Khan et al. (1980) Microchem J 25: 388-395, incorporated herein by reference). Two ml of an assay reaction mixture was introduced in the reactor. The mixture contained 1 mM L-cysteine (or compound), 2 mM pyridoxal 5′-phosphate, 100 mM potassium phosphate buffer (pH=7.4). A constant stream of nitrogen was passed through the mixture via gas-inlet capillary. Reactions were initiated by transferring the tubes from ice bath to a 37° C. water bath. The stream of nitrogen carried the sulfide acid in the second reactor containing 4 ml of sulfide anti-oxidant buffer (SAOB) solution, consisting of 2M KOH, 1M salicylic acid and 0.22M ascorbic acid at pH 12.8[5]. After incubating at 37° C. for 90 minutes, 1 ml of 10% trichloroacetic acid solution was added to mixture to stop the reaction. The remainder H2S in the mixture was carried out via nitrogen stream by other 60 minutes of incubation at 37° C. The concentration of sulfide in SAOB solution was measured with a sulfide sensitive electrode (Model 9616 S^2−/Ag^+ electrode, Orion Research, Beverly, Mass., USA). For studies in which the test compounds were incubated in liver homogenate, 100-150 mg of isolated rat livers were homogenized in 1 ml of ice-cold T-PER protein extractor. The homogenates were added to the reaction mixture at a concentration of 10% (wt/vol). DL-propargylglycine 2 mM was incubated with liver homogenates for 5 min at 37° C. prior the enzyme reaction. Khan, S. U. Morris, G. F. and Hidiroglou, M. (1980) Rapid estimation of sulfide in rumen and blood with a sulfide-specific ion electrode. Microchem J. 25:388-395, incorporated herein by reference.

TNBS-induced colitis = TNBS-induced colitis in mice (disease activity score, MPO activity); assay type: in vivo; details: oral 100 mg/kg every 12 h for 5 days
Procedure: A standard experimental animal model of colitis induced by intracolonic administration of 2,4,6-trinitrobenzene sulfonic acid (TNBS) to mice is used in the following example. A detailed description of this model has been published (Santucci et al. (2003) Gastroenterology 124:1381-94) and is incorporated herein by reference. Briefly, 6-8 week old Balb/c mice were given TNBS intracolonically at a dose of 1.5 mg in 0.1 mL of 30% ethanol. The mice were randomized to the various treatment groups (n=6 per group). Beginning one hour later and continuing every 12 h for 5 days, the mice were treated orally with vehicle (1% carboxymethylcellulose (CMC)), 5-ASA (mesalamine) alone (100 mg/kg), 4-hydroxythiobenzamide (referred to in the Figures as 4-HTB) (100 mg/kg), 5-amino-2-(4-thiocarbamoyl-phenoxycarbonyloxy)-benzoic acid (100 mg/kg) (referred to hereinafter as Compound XXVII) and equimolar doses of mesalamine (50 mg/kg) and (4-HTB) (50 mg/kg). *p<0.05 versus the vehicle-treated group. Each group consisted of at least 5 rats.
The mice were evaluated (blindly) on the final day of the study for the presence of diarrhea and fecal occult blood, and their body weights were measured. […] After sacrifice, a sample of the colon was excised for measurement of myeloperoxidase (MPO) activity, as a marker of granulocyte infiltration. All results were compared to those obtained with healthy mice as well.

Compound | pain perception score (visceral pain perception) | H2S generation in buffer ([1]; 1 mM compound, FIG. 6) | pain perception score after glibenclamide pretreatment (visceral pain perception; glibenclamide 10 mg/kg i.p. 30 min before, FIG. 3) | H2S generation in liver homogenate ([1]; 1 mM compound, 10% rat liver homogenate, FIG. 6) | H2S generation in liver homogenate with PAG ([1]; 1 mM compound, liver homogenate plus DL-propargylglycine 2 mM, FIG. 6) | concentration of H2S produced ([1]; 1 mM of the compound) | Disease Activity Score (TNBS-induced colitis; FIG. 1) | myeloperoxidase (MPO) activity (granulocyte infiltration) (TNBS-induced colitis; colon sample, FIG. 2)
NC(=S)c1ccc(O)cc1 [4-hydroxythiobenzamide] | did not have a significant effect on pain perception | did not release significant H2S | – | – | – | – | – | –
5-amino-2-(4-thiocarbamoyl-phenoxycarbonyloxy)-benzoic acid [Compound XXVII] | significantly reduced the pain perception | releases H2S spontaneously | reversed by pretreatment with glibenclamide | greater when in the presence of tissue | lack of effect | 10 to 20 µM | almost three times as effective | significantly reduced inflammation
